ChEMBL document CHEMBL1201862, “PubChem BioAssay data set” (2004)
Calls of active or inactive are those of the source.

Key:
[1] = RKO cell viability reduction, dose response, CellTiter-Glo luminescence (AID 1117322); format: functional
[2] = cytotoxicity toward Colo320 cells – cell-based, CellTiter-Glo luminescence, IC50, dose response (AID 1117334); format: functional; settings: COLO 320
[3] = molecular target: T1, Ubiquitin-conjugating enzyme E2 N (Homo sapiens, UniProt P61088); format: functional;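 also: Dose-response confirmation in a TR-FRET assay detecting UBC13-driven polyubiquitin chain formation, inhibition measured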
T1 sequence (P61088 whole entry): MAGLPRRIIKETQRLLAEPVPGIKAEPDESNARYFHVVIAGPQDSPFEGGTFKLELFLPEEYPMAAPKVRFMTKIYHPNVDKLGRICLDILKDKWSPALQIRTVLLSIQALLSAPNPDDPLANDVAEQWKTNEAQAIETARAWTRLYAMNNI

[4] = CellTiter-Glo luminescent dose response of DLD-1 viability loss (AID 1117352); format: functional
[5] = SNU-C1 cell viability reduction, dose response, CellTiter-Glo luminescence (AID 1117323); format: functional, cell-based
[6] = molecular target: Heat shock protein HSP 90-alpha (Homo sapiens, UniProt P07900); format: functional, organism-based
[7] = microbe, parasite or virus in culture; format: functional; settings: Mycobacterium tuberculosis
[8] = cytotoxicity toward HCT116 cells – cell-based, CellTiter-Glo luminescence, IC50, dose response (AID 1117332); format: functional; settings: HCT-116
[9] = Concentration-dependent survival of SW480 colon cancer line, luminescence detection with CellTiter-Glo, half-maximal inhibitory concentration (AID 1117338); format: functional
[10] = cytotoxicity toward HT-29 cells – cell-based, CellTiter-Glo luminescence, IC50, dose response (AID 1117330); format: functional
[11] = half-maximal inhibitory concentration for glucagon-like peptide-1 release, STC-1 cell line, dose-response (AID 1117345); format: functional, cell-based
[12] = HCT116 cell viability decrease, GSK3B pretreatment – CellTiter-Glo, IC50, dose response (AID 1117339); format: functional; settings: HCT-116
[13] = Glucagon-like peptide 1 release potency, NCI-H716 cell line, dose-response, half-maximal inhibitory concentration (AID 1117344); format: functional, cell-based
Aminopeptidase N = molecular target: T2, Aminopeptidase N (Plasmodium falciparum FcB1/Columbia, UniProt O96935); assay: P. falciparum M1AAP inhibitors, biochemical, fluorogenic H-Leu-NHMec substrate, 1536-well (AID 1445); set-up: species or system Plasmodium falciparum 3D7, 3D7
T2 sequence (O96935 whole entry): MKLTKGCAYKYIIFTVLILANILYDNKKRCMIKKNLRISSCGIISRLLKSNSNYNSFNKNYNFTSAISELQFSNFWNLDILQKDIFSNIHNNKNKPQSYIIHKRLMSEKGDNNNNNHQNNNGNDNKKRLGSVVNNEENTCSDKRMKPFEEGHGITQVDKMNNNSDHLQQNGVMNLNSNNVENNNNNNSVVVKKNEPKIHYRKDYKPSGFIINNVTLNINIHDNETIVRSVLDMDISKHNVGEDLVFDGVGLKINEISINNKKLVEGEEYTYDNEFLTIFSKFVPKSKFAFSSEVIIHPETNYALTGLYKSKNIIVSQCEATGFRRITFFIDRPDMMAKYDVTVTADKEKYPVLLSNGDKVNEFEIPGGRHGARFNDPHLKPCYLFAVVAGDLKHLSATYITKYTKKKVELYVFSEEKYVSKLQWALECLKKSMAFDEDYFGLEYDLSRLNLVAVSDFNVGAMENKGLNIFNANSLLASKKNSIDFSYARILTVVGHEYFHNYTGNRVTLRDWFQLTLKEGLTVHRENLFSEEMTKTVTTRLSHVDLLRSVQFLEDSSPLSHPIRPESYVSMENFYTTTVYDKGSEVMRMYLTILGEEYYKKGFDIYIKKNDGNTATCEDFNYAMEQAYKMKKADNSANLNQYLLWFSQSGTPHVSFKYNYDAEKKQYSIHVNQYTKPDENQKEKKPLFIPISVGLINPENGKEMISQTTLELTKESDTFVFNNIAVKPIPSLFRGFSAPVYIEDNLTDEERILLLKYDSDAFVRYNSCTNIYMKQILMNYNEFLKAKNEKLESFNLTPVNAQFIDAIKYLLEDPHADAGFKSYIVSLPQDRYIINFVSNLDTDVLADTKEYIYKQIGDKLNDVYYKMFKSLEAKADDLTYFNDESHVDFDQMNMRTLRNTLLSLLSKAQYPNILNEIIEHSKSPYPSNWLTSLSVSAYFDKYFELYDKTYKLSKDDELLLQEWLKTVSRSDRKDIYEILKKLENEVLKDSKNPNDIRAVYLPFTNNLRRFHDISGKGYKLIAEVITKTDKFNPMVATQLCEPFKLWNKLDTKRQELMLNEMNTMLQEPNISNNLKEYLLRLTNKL

[14] = molecular target: Bifunctional protein GlmU (Mycobacterium tuberculosis, UniProt P9WMN3); assay: Inhibitors of Mycobacterial Glucosamine-1-phosphate acetyl transferase (GlmU). Secondary screen.; set-up: species or system Mycobacterium tuberculosis H37Rv
[15] = molecular target: Glutathione-S-transferase (Schistosoma japonicum, UniProt Q26513); assay: biotin-GST/anti-GST TR-FRET signal inhibitors, dose response, artefact control for Vif-APOBEC3G degradation inhibitor project, biochemical (AID 1117362); format: functional
[16] = inhibitors of Vif binding to APOBEC3G peptide, primary screen, biochemical, TR-FRET, GST-Vif 1-94, biotin-A3G peptide, dose response retest (AID 1117319); format: functional;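 also: TR-FRET signal of purified GST-Vif binding a biotinylated A3G peptide; inhibitors lower the FRET signal by blocking Vif and A3G binding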
[17] = molecular target: T3, Sphingosine 1-phosphate receptor 2 (Homo sapiens, UniProt O95136); assay: Dose Response Cell Based Assay for Antagonists of the S1P2 Receptor. [Related pubchem assays: 856, 736 ]; format: functional
Cytochrome P450 2C19 = Cytochrome P450 2C19 (Homo sapiens, UniProt P33261); assay: qHTS Assay for Inhibitors and Substrates of Cytochrome P450 2C19. [Related pubchem assays: 410 ]; format: ADME; settings: read-out: Potency
Cytochrome P450 2C9 = Cytochrome P450 2C9 (Homo sapiens, UniProt P11712); settings: Potency
[18] = molecular target: T3, Sphingosine 1-phosphate receptor 2; assay: Dose Response Cell Based Assay for Agonists of the S1P2 Receptor. [Related pubchem assays: 729, 736, 843 ]; format: functional
[19] = HeLa 2N DNA content increase, dose response, cell-based, IC50 (AID 1117349); format: functional
[20] = HeLa 4N DNA content increase, dose response, cell-based, IC50 (AID 1117351); format: functional
[21] = molecular target: RNA-editing ligase 1, mitochondrial (Trypanosoma brucei brucei, UniProt P86926); assay: TbREL1 ligase inhibitors, dose response, biochemical, fluorescence, Trypanosoma brucei (AID 1117295); format: functional
Sequence of RNA-editing ligase 1, mitochondrial (P86926 whole entry): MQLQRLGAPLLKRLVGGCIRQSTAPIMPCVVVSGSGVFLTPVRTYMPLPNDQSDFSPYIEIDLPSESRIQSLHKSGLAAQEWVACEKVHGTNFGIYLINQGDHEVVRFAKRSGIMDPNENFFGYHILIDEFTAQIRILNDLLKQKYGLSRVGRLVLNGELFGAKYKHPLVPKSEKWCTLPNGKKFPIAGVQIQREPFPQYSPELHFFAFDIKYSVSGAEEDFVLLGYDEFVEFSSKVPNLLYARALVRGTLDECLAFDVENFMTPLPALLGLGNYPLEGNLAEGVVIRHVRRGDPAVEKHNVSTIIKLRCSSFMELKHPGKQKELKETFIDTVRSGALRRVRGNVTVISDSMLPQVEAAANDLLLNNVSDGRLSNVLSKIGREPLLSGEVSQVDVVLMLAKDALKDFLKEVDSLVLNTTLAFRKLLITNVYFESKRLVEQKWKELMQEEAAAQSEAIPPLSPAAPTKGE

T3 sequence (O95136 whole entry): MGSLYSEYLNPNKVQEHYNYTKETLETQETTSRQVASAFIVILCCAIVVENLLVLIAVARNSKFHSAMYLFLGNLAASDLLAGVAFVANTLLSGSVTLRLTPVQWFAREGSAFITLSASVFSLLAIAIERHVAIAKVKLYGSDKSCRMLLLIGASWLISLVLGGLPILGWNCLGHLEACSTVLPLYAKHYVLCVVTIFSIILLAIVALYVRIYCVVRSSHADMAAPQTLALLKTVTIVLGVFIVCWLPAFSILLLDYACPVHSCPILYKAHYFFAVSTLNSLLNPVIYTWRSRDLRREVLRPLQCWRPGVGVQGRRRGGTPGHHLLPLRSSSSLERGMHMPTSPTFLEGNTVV
Sequence of Glutathione-S-transferase (Q26513 whole entry): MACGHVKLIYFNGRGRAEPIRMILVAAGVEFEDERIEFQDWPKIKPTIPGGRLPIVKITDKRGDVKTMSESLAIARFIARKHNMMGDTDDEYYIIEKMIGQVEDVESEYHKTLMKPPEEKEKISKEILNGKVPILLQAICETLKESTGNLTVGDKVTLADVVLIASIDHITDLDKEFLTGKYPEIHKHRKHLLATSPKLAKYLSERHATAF
Sequence of Cytochrome P450 2C9 (P11712 whole entry): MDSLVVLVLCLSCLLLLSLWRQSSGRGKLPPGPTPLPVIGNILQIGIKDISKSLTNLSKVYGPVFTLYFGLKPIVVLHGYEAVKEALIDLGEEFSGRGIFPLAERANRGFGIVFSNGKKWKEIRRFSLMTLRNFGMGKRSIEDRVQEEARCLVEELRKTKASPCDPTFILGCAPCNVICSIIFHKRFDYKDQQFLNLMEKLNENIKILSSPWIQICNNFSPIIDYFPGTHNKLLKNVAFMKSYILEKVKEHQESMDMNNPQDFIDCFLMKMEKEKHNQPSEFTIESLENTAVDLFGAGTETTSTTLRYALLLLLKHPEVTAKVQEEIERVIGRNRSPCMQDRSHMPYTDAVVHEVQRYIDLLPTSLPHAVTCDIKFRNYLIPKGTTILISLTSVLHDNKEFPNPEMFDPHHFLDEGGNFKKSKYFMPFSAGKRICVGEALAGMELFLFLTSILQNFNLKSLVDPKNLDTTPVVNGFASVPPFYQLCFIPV
Sequence of Bifunctional protein GlmU (P9WMN3 whole entry): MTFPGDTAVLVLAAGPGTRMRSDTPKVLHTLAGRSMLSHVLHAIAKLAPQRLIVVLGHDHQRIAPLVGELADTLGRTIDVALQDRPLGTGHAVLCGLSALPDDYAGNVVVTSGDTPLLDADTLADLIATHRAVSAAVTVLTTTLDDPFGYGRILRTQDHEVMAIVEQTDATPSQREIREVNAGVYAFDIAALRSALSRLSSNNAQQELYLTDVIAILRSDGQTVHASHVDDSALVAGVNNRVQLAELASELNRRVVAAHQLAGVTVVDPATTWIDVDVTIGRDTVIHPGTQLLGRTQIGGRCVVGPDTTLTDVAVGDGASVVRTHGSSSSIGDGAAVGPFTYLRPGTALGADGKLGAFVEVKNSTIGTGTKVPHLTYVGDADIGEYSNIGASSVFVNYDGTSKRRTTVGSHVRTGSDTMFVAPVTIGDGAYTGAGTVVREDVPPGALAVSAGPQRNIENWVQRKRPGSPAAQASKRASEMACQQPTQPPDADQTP
Sequence of Cytochrome P450 2C19 (P33261 whole entry): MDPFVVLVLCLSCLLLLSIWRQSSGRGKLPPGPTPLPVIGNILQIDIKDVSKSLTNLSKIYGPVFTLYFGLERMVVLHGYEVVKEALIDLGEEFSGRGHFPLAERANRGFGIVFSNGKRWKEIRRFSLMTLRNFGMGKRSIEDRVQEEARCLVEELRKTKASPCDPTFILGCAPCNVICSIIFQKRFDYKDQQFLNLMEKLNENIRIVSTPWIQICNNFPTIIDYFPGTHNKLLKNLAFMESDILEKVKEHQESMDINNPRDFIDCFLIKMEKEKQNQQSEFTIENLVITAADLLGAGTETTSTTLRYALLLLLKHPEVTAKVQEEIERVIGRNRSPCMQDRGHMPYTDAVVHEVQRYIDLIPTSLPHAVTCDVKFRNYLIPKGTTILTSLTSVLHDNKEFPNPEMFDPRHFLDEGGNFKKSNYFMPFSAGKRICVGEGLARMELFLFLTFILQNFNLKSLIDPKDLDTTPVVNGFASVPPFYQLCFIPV

Which IC50 [1] does the source give for Clc1ccc(CCC(Cn2ccnc2)Sc2c(Cl)cccc2Cl)cc1 (centres undefined) [BUTOCONAZOLE NITRATE] here?
The IC50 was 2.3 µM (active).

And the IC50 [2]?
Its IC50 is 0.221 µM (active).

What about the IC50 [3] of the same compound?
The IC50 was > 20 µM (inactive).

And the IC50 [4]?
The IC50 was 1.84 µM (active).

And the IC50 [5]?
Its IC50 is 0.996 µM (active).

What about the AC50 [6] of the same compound?
Its AC50 is < 0.195 µM (active).

What about the CC50 [7] of the same compound?
Its CC50 is 37.6 µM (active).

And the IC50 [8]?
The IC50 was 2.06 µM (active).

What about the IC50 [9] of the same compound?
The IC50 was 1.69 µM (active).

And the IC50 [10]?
Its IC50 is 3.01 µM (active).

And the IC50 [11]?
Its IC50 is 7 µM (inactive).

And the IC50 [12]?
The IC50 was 0.841 µM (active).

What about the IC50 [13] of the same compound?
Its IC50 is 16 µM (inactive).

For O=C(CCCN1C(=O)/C(=C/c2ccco2)SC1=S)Nc1ccccc1C(=O)O, which IC50 (Aminopeptidase N) is on record?
Its IC50 is 102 µM (active).

What about the IC50 [14] of the same compound?
Its IC50 is 86 µM (active).

Which IC50 [15] does the source give for CCN1CCN(c2ccc(NC(=O)Cc3ccccc3)cc2)CC1 here?
Its IC50 is > 100 µM (active).

What about the IC50 [16] of the same compound?
Its IC50 is > 100 µM (active).

For CCOC(=O)C1C(=O)CC(C)(O)C(C(=O)OCC)C1c1ccccc1 (centres undefined), which IC50 [17] is on record?
Its IC50 is > 50 µM (not active).

Which AC50 (Cytochrome P450 2C19) does the source give for CC(C)C[C@@H](CC(=O)N[C@@H](CCCN)CC(=O)N[C@@H]1CCCC[C@H]1C(=O)N[C@H](CC(=O)N[C@@H](CCC(=O)O)CC(=O)O)Cc1ccccc1)NC(=O)[C@@H]1CCCC[C@H]1N here?
The AC50 was 39.8 µM (inconclusive).

What about the AC50 (Cytochrome P450 2C9) of the same compound?
Its AC50 is 3.98 µM (inconclusive).

Which EC50 [18] does the source give for Oc1cccc(C(=S)N2CCN(Cc3ccccc3)CC2)c1 here?
Its EC50 is > 50 µM (not active).

Which IC50 [19] does the source give for COc1cc(-c2ccc(=O)[nH]n2)ccc1OC(F)F [ZARDAVERINE] here?
The IC50 was > 10 µM (inactive).

What about the IC50 [20] of the same compound?
Its IC50 is > 10 µM (inactive).

With COC(=O)C1=C(C)N(Cc2ccccc2C(F)(F)F)C(NCc2ccc(OC)cc2)=NC1c1cccc(Cl)c1 (centres undefined) as the compound, how does the IC50 [21] read?
Its IC50 is > 96.6 µM (inactive).
